Measured values: US20050215530A1, “Combination therapy for the treatment of cancer” (priority 2002, published 2005)

Legend:
[1] = system: human LoVo tumour cells; assay: LoVo tumour model; format: in vivo, athymic nude mice; settings: s.c. LoVo xenograft; ZD6126 200 mg/kg i.p. day 0; ZD1839 200 mg/kg/day p.o. days 0-13; 8 mice per group
Method: Athymic nude mice were implanted subcutaneously with 1.5×10^7 human LoVo tumour cells (obtained from European Collection of Cell Cultures, ECACC, CAMR, Salisbury, Wiltshire, SP4 0JG, UK; Cat. no. CCL 229) and tumours allowed to grow until they were approximately 9 mm in diameter. Groups of 8 tumour bearing mice were then treated as follows: • Control animals were dosed with PBSA 0.1 ml/10 g intraperitoneally (i.p.) single bolus on day 0 then about 2 h hours later 0.1% Tween 80 0.1 ml/10 g orally (p.o.) on day 0, followed by 0.1% Tween 80 0.1 ml/10 g p.o. once daily on days 1-13; • ZD6126 alone was dosed 200 mg/kg i.p. on day 0; • ZD1839 alone was dosed 200 mg/kg/day p.o. on days 0-13; and
(in the combination arm) ZD6126 200 mg/kg i.p. on day 0 then about 2 hours later ZD1839 200 mg/kg p.o. dosed on day 0, followed by ZD1839 200 mg/kg p.o. once daily on days 1-13. Tumour growth was measured twice weekly from calliper measurements of tumour diameter and the time taken for tumours to double in size compared using the Mann-Whitney U statistic.

[2] = system: A549 human NSCLC cells; assay: A549 NSCLC xenograft model; settings: for Tumour size: day 42 after tumour implantation, RT 4 Gy days 8, 9, 15, 16, ZD6126 150 mg/kg i.p. days 10, 17, ZD1839 2.5 mg per day p.o. days 7-11 and 14-18
Method: A549 NSCLC Xenograft Model
A human non-small cell lung cancer (NSCLC) xenograft model was used. Athymic nude mice were injected subcutaneously (s.c.) with A549 human NSCLC cells. Treatment began after 7 days when tumours were established (tumour volume=100-300 mm^3). […] Animals in all groups were sacrificed on day 42 after tumour cell implantation, when the control tumours reached approximately 2.0 cm^3.

[3] = system: tumour vasculature; settings: reported in Proc. Am Assoc. Cancer Res. 2000; 41: 329; cited from earlier work

Structure (SMILES)	Growth delay in days for tumours to double in size [1]	Tumour size [2] [cm^3 S.D.]	inhibition of tumour growth (in words) ([2]; A549 xenograft, compared with control animals or single agents)	effect on tumour vasculature (in words) [3]
COc1cc2ncnc(Nc3ccc(F)c(Cl)c3)c2cc1OCCCN1CCOCC1 [ZD1839, N-(3-chloro-4-fluorophenyl)-7-methoxy-6-(3-morpholinopropoxy)quinazolin-4-amine, reference compound]	8.3 days; p < 0.01	1.41 ± 0.08		
COc1cc2c(c(OC)c1OC)-c1ccc(OP(=O)(O)O)cc1[C@@H](NC(C)=O)CC2 [ZD6126, N-acetylcolchinol-O-phosphate]	3.6 days; p < 0.05	1.17 ± 0.10	marked inhibition of tumour growth	selectively disrupts tumour vasculature leading to vessel occlusion and extensive tumour necrosis
